Tests used:
[1] = system: embyronic fibroblasts of mouse NIH-3T3; test: Endocellular pHi of fibroblasts by microspectrofluorimetry (FDA, BCECF-AM); format: cell-based; settings: 10 mkM in medium with serum
Experimental: The effect of the compounds according to the invention on the endocellular pH, embyronic fibroblasts of mouse NIH-3T3 supplied by the All-Russian Collection of Cellular Cultures of the Institute of Cytology of the Russian Academy of Sciences St. Petersburg was investigated. The cells were grown in the DMEM (Sigma) medium containing 2.2 g/l of sodium bicarbonate with addition of 80.0 mkg/ml of gentamicin and 10.0% embryonal veal serum at a temperature of 37° C. in an atmosphere containing 5.0% of carbon dioxide. For these experiments use was also made of a medium buffer with 5.0 mM of HEPES and 15.0 mM of sodium bicarbonate without serum or with addition of 5.0% serum. The cells were calculated with the help of a hemocytometer. A share of the dead cells was determined by colouring trypan blue.
The measurements of the endocellular pHi were carried out with the help of colorants FDA (Sigma) and BCECF-AM (Calbiochem) on a microspectrofluorimeter by a standard technique (Koshevoy Yu. V., Akatov V. S., Grobova M. E. Microspectrofluorimeter for measuring endocellular pH (micro pH)”. Devices and equipment for studies in the field of physical-and-chemical biology and biotechnology. Pushchino, 1990. P. 8-14).
The cells at a temperature of 37° C. were colored within 5 minutes with 5.0 mkM PDA that before the colouring was prepared from a 10.0 mM solution in acetone by dilution for 30 minutes in a phosphatic buffer to 0.1 mM or 2.0 mkM 1.0 mM solution BCECF-AM in DMSO.
The two-wave method of determining pHi was used based on the ratio intensities of fluorescence of the cells on two wavelengths (Akatov V. S. et all), “Endocellular pH and substrate dependence of proliferation of fibroblasts of Chinese hamster, Cytology, 1991, 33 (7), p. 86-94). The fluorescence was excited by light at λ=490 nm, the emission was recorded simultaneously with two photomultipliers on wavelengths λ=535 nm and λ=570 nm. The K-ratio of the fluorescence on two wavelengths was determined with a deduction of the background fluorescence of the medium near the investigated cells for 40-60 individual cells, which are then averaged taking into account the measurement error. A thermostatically controlled table was used that allowed measurements to be conducted at a temperature of 37° C. An account was taken for the photodynamic damage of the pigmented cells during-long-time continuous illumination by excited light. The readings were taken from a section of the preparation exposed to light for not more than 5 minutes.
The calibration curves for determining the absolute pHi values by magnitude K were constructed using the Thomas technique (Thomas J. A., Bushbaum R. N., Zimniak A. w Racker E. “Intracellular pH measurements in Ehrlich ascites tumor cells utilizing spectroscopic probe generated in situ”, Biochemistry, 1979, v. 18, p. 2210-2218), for which case the pigmented cells treated for 5-10 minutes with carboxyacidic nigericyn (Calbiochem) at a concentration of 5-10 mkg/ml was placed in a solution with a high content of potassium—130 mM KCl, 1.0 mM MgCl2, 20.0 mM of HEPES) and with pH values from 6.2 to 7.6. The K values were measured in the media with different pH assuming that pHi of the cells equals to the pH of the medium due to the action of nigericyn, which exchanges potassium ions for protons and at a high content of potassium in the medium counterbalances the pH of the medium and cells. Calibration curves were used based on the fluorescence of same medium with addition of 5.0 mkM of fluorescence or BCECF were used to the control the stability of the of the instrument readings.
The correctness of the technique was confirmed in the experiments on measurements of pH values of cells treated with protonofor monencine raising pH of the cells due to replacement of sodium ions by protons, and by determining the dependence of the change of pHi on the change of the pH of the medium. […]

[2] = system: embyronic fibroblasts of mouse NIH-3T3; settings: 1-5 mkM; 15-20 minutes; cells of mice NSO and NIH-3T3; cited from earlier work

CC[C@@]1([C@@H]2O[C@@H]([C@H]3O[C@@](O)(CO)[C@H](C)C[C@@H]3C)C[C@@H]2C)CC[C@H]([C@]2(C)CC[C@]3(C[C@H](O)[C@@H](C)[C@@H]([C@@H](C)[C@@H](OC)[C@H](C)C(=O)O)O3)O2)O1 [monensine, reference compound]
rise of pHi [1]: 0.12 pH unit
increase of pHi [2]: 0.2 unit
